Experimental data as given in ChEMBL document CHEMBL3507680, “University of Dundee, Gates Library screen for HepG2 cell viability”.

Test: Human HepG2 cell viability assay in 384 well format
Format: toxicity, cell-based
Design: dose 125 nL, time 70.5 hour; concentration not given beside the values
Details: HepG2 cells, read-out: Inhibition

SMILES	cytotoxicity at 70.5 h [%]
Cc1cc2n(n1)CC(CNC1CCN(CCc3ccccc3)CC1)CN2 (configuration not stated)	0.368
CC(C)[C@H](Nc1nc(C2CCCC2)nc2c1cnn2C)C(N)=O	-12.3
COCCCNC(=O)CN(C)C(=O)c1cc(C)sc1C	-14
CC(=O)NCC(=O)N1CCCC2(CCC(=O)N(CCc3c[nH]cn3)C2)C1 (configuration not stated)	10.1
Cc1ccc(N2CCCC(NCC(=O)NCC3CC3)C2)nn1 (configuration not stated)	1.19
Cc1cc(Cn2cc(C(C)Cc3ccc4c(c3)OCO4)nn2)n[nH]1 (configuration not stated)	-7.62
CCCC(NC(=O)c1ccc(OC)cc1C)c1nnn[nH]1 (configuration not stated)	8.62
Cc1cnc2n(c1=O)CC(C(=O)NC1CC1)CS2 (configuration not stated)	2.18
COc1ccccc1COCC(O)CN(C)c1ccc(C)cc1C (configuration not stated)	15.1
CC(C)=CCCC1(C)CCC(=O)N(CCNc2nc(C)cc(=O)[nH]2)C1 (configuration not stated)	-10.3
Cc1ccccc1-n1c(C)cc(=O)[nH]c1=O	26.3
CN(C)Cc1cncc2c1CCN(CC(=O)N(C)C)C2	10.2
CCc1cc(NCCN2CCNC2=O)n2nc(C)c(C)c2n1	-11.4
CSc1ncc(Cl)c(C(=O)NC(Cc2ccccc2)C(=O)O)n1 (configuration not stated)	15
CO[C@@H]1CCN(C(=O)Cc2ccsc2)[C@H]1Cc1cccnc1	-5.91
Cn1nc(C2CN(C(=O)c3cscn3)C2)c2nccnc21	-3.87
O=C1CC(c2ccc(C(=O)O)cc2)c2cnn(Cc3ccco3)c2N1 (configuration not stated)	-25.8
Cc1cc(C(=O)N2CCN(Cc3ccsc3)CC2)c(C)n1C1CC1	-14.9
CCN(CC(=O)NC)C(=O)c1csc(Cc2ccccc2)n1	-2.3

SMILES	cytotoxicity at 70.5 h [%]
C1CCCN(c2nc(C3CC3)ns2)CC1	15.3
c1cc(CN2CC[C@H]3C[C@H](c4nc(C5CC5)cs4)O[C@@H]3C2)ccn1	-7.31
CCC(CN1CCCC1)NC(=O)C1(c2cccc(F)c2)CC1 (configuration not stated)	-6.19
Cc1ccn(Cc2nc(C(C)OCC(C)C)no2)c(=O)c1 (configuration not stated)	3.64
Cc1ccccc1C(C)(C)CNC(=O)CCSc1nnnn1C	-1.67
COc1ccc2c(C(=O)N(C)C)cc(-c3cnc(N)nc3)nc2c1	-3.44
C[C@@H]1CN(S(=O)(=O)N2CCCC2)C[C@@]1(O)C1CC1	-4.68
CSCC[C@H](NC(=O)N1CCC(Cc2ccccc2)CC1)C(=O)O	-13.4
Cc1nnc(C2Cc3ccccc3CN2Cc2ncc(Cl)n2C)o1 (configuration not stated)	-13.3
O=C(CCc1nc2cc(Br)cnc2[nH]1)NCCN1CCOCC1	-10.2
CCn1cc2c(n1)C(COCC1CC1)CN(c1ccc(C)nn1)C2 (configuration not stated)	-16.7
CC(C)=CCS(=O)(=O)Cc1nc(C(C)C)no1	-11.6
Cc1nc(NC(=O)c2c(-n3cnnn3)sc3c2CCCC3)sc1C	-10.4
COC(=O)C(NC(=O)c1ccc(NC2CC2)nc1)c1ccccc1 (configuration not stated)	-5.38
Brc1cccc(-c2noc(CN3CCOCC3)n2)c1	-2.61
Cc1ccccc1NC(=O)Nc1c[nH]c(=O)[nH]c1=O	-9.84
Cc1nn(C)cc1-c1cc(C(F)(F)F)n(CCCN)n1	-0.484
Cc1nc2c(c(NCc3nc4ccccc4s3)n1)CCNCC2	-4.98
CN(C)c1cc(C2CCCN(C(=O)c3noc4c3CCCC4)C2)ccn1 (configuration not stated)	-1.31

SMILES	cytotoxicity at 70.5 h [%]
COCCNC(=O)CNC(=O)c1nc(Cc2c(Cl)cccc2Cl)no1	-8.7
Cc1ccc2c(c1)SCC(=O)N2CC(=O)N1CCCC1c1cc(C)on1 (configuration not stated)	-1.98
N#Cc1cccc(CS(=O)(=O)NCC(O)Cc2ccccc2)c1 (configuration not stated)	-0.967
Cc1ccc(NC(=O)c2n[nH]c(-n3cnnc3)n2)cc1	-8.15
Cc1cc2c(c(-c3cncc(C(=O)N4CCCC4)n3)c1)OC(CN)C2 (configuration not stated)	-6.51
CN(C)CCN1CCN(CC2CC2)c2ncccc2C1	-3.26
CN(C)CCOCC1CN(C(=O)c2ccccn2)Cc2ccnn2C1 (configuration not stated)	6.38
CCN(CC)c1nc2ccsc2c(=O)n1CCC(=O)NCc1ccco1	12.3
CC(NC(=O)N1CCS(=O)(=O)CC1)c1ccc(F)cc1Cl (configuration not stated)	-1.2
COCCN1C(=O)[C@]2(CC[C@@H]3CN(C(=O)NC(C)C)C[C@@H]32)N=C1C	25.4
CCNC(=O)c1ccnc(NCC2COc3cc(OC)ccc3C2)c1 (configuration not stated)	-3.26
CN(Cc1cnn(C)c1)C(=O)Nc1cccnc1-n1cccn1	14.6
COC(=O)c1cccc(C(=O)N(C)Cc2cccc(F)c2)c1	5.14
O=C(N1CCCC(n2cncn2)C1)C1(c2cccc(F)c2)CCCC1 (configuration not stated)	16.5
COc1cc(C)nc(N2CCN(C(=O)CSC)CC2)n1	-11.8
CC(=O)N1CCCn2nc(CNS(=O)(=O)Cc3ccccc3)cc2C1	-3.38
Cc1ccccc1CS(=O)(=O)NCCCN1CCCCC1	-4.67
Cc1ccc(CN2CCN(Cc3ccc(N(C)C)nc3)CC2=O)cc1C	-1.36
CC1CCN(c2ncc(C#N)c(N)n2)CC1	-3.5
